Usually IC50 stands for the concentration that inhibits the measured activity by half.

Here are results for eleven compounds from patent US4713384A, “Selective method for blocking 5HT2 receptors” (Eli Lilly and Company, priority 1985, dated 1987).

The test system of assay [1] is 5HT2 receptors. As to the kind of experiment: pressor response to serotonin in pithed SHR after oral treatment. In kind it is in vivo, spontaneously hypertensive rats (SHR). The settings on record: for Curve Shift Relative to trans: pithed SHR. How it is done: (§1) SHR were anesthesized with halothane, femoral arterial and venous catheters were implanted as before and the trachea was cannulated. Each rat was pithed by passing a steel rod through the right orbit and down the entire length of the spinal column. The steel rod remained in place for the duration of the experiment. Immediately after pithing, the rats were ventilated with room air. An equilibration period of 15 minutes was observed prior to control measurements and administration of drugs or vehicle p.o. Increasing doses of serotonin or the alpha2 agonist clonidine were injected i.v. one or six hours after oral treatment with the […]. The response was recorded and the blood pressure allowed to recover to control levels after serotonin. Cumulative dose-response curves to clonidine were determined. The test drug solution was prepared fresh daily. Tables 5 and 6 give the results of these determinations at a dose level of 0.1 mg/kg.
^a Conscious spontaneously hypertensive rats (SHR) were treated orall
1 hour before anesthesia, pithing and determination of pressordose
response curves to multiple doses of 5HT iv (n= 4-10/group).
^b Dose of 5HT required to increase mean arterial blood pressure by 5
6 hours before anesthesia, pithing and determination of pressordose
response curves to multiple doses of 5HT iv (n = 4-10/group).

Assay [2] has as its target T1, 5HT2 receptors (Rattus norvegicus, UniProt P14842). As to the kind of experiment: antagonism of serotonin contraction in rat external jugular vein (5HT2, apparent dissociation constant). In kind it is biochemical, rat (male Wistar). Particulars: antagonist incubated one hour, 37° C., read-out: -log KB (Log Kb ± S.E.), 5HT2 receptors (converted). Set-up: their external jugular veins and thoracic aortas dissected free of connective tissue; from tissue; host or cells: external jugular vein of male Wistar rats. Here is the method: Compounds according to formula I have an extremely high affinity for 5HT2 receptors, with a much lower affinity for alpha receptors. Ratios of relative dissociation constants for interaction with alpha to 5HT2 receptors are of the order of 200,000-300,000 indicating dramatic selectivity for 5HT2 receptors. The apparent dissociation constants (KB) are a measure of affinity for 5HT2 and alpha receptors and are expressed as the negative logarithm and are determined according to the following protocol.
(§2) An initial optimum resting force of 1 and 4 g was applied to the jugular vein and aorta, respectively. […] Exp. Ther., 205, 400 (1978) and Cohen, Colbert and Wittenauer, Drug Dev. Res., 5 513 (1985) for descriptions of the procedures employed. Alpha receptor antagonist activity was evaluated in the aorta (α1) or guinea pig ileum (α2).
(§3) The -log KB values obtained for 4-hydroxycyclohexyl 1-isopropyl-9,10-dihydrolysergate, isomer mixture (racemate) and pure isomers (cis and trans referring to stereochemistry of the hydroxycyclohexyl group) plus standard error against 5HT2 receptors are given below in Table 1.

Another assay has as its target T2, α1 receptors (Rattus norvegicus, UniProt P23944).
T2 construct: their external jugular veins and thoracic aortas dissected free of connective tissue; from tissue; host or cells: thoracic aorta of male Wistar rats
T2 sequence (P23944 1-561): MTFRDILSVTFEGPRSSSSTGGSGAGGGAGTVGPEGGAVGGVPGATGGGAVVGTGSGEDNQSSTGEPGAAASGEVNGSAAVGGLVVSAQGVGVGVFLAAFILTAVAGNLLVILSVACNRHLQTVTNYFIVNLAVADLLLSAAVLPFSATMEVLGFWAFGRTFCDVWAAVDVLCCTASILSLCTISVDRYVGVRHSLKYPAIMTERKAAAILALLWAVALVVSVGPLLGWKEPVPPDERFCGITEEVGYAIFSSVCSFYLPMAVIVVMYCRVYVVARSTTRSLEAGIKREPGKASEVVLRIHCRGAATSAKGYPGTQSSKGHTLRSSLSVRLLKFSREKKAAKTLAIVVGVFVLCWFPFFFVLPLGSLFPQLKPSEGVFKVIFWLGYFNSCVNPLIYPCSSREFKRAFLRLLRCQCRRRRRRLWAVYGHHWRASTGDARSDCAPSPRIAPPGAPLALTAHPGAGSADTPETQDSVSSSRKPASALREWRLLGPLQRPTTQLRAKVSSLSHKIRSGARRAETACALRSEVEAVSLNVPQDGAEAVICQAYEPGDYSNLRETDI
The assay is described as follows: alpha1 antagonism in rat aorta (norepinephrine). In kind it is biochemical. Here is the method: as §2, §3
(§4) The in vitro rat aorta preparation described above was used for α1 -receptors and the guinea pig ileum for α2 -receptors. ED50 (median effective dose) for norepinephrine was determined in the presence of a 10-5 molar dose of the test compound and this ED50 compared to a control ED50.

In another assay the target is T3, α2 receptors (Cavia porcellus, UniProt Q60474).
T3 construct: Alpha receptor antagonist activity was evaluated in the aorta (α1) or guinea pig ileum (α2); from tissue; host or cells: guinea pig ileum
T3 sequence (Q60474 1-464): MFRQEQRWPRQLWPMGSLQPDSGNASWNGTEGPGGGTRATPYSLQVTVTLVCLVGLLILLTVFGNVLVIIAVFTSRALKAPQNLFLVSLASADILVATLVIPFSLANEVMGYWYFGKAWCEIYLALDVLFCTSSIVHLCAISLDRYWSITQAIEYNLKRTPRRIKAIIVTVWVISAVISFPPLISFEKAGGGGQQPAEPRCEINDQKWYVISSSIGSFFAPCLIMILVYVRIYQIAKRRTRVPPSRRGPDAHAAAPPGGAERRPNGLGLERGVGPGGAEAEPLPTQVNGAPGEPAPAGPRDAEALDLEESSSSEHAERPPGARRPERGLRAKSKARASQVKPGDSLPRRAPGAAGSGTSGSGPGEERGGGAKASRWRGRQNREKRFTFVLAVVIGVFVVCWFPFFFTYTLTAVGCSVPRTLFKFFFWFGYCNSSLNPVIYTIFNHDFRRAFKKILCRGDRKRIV
The assay is described as follows: alpha2 antagonism in guinea pig ileum. In kind it is biochemical. How it is done: as §2, §3, §4

Assay [3] is described as follows: blood pressure and heart rate in spontaneously hypertensive rats. In kind it is in vivo. The settings on record: SHR, oral, 10 mg/kg.
Another assay deals with T4, Muscarinic (Cavia porcellus, UniProt H0W1Z3).
T4 construct: histamine or carbamyl choline (muscarinic) contraction in guinea pig trachea; from tissue; host or cells: guinea pig trachea
T4 sequence (H0W1Z3 1-590): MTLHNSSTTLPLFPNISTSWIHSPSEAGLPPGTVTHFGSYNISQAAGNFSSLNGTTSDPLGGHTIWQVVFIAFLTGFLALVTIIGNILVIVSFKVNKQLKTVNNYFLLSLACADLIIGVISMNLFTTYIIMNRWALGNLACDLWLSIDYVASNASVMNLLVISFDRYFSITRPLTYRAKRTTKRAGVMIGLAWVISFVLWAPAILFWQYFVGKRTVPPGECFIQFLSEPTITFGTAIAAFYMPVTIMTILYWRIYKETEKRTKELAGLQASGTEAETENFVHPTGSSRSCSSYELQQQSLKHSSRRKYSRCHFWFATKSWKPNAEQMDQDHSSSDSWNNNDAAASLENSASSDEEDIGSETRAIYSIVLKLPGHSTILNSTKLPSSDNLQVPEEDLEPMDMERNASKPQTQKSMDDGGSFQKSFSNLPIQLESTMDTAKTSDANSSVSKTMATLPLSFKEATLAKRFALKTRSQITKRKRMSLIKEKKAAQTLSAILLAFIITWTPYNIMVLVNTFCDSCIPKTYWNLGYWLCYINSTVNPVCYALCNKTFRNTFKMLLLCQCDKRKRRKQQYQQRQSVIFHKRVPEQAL
The assay is described as follows: carbamyl choline (muscarinic) contraction in guinea pig trachea. Type of assay: biochemical. The text has this: (§5) The compounds of this invention also lack demonstrable effects against histamine or carbamyl choline (muscarinic) contraction in guinea pig trachea, using standard procedures.

Assay [4] has as its target T1, 5HT2 receptors. As to the kind of experiment: biochemical. The text has this:
The procedures employed are those set forth in Cohen, Colbert and Wittenauer (loc. cit.) for other tissues.

The test system of the next assay is alpha2 receptors. The assay is described as follows: alpha2 antagonism (clonidine pressor response) in pithed SHR after oral treatment. In kind it is in vivo, spontaneously hypertensive rats (SHR). Here is the method: as §1, with “Tables 5 and 6 give the results of these determinations at a dose level of 0.1 mg/kg.” left out
The next assay addresses 5HT1 receptors. As to the kind of experiment: Rat Cortical Membrane Binding, 5HT1. Particulars: rat cortical membranes; read-out: Rat Cortical Membrane Binding IC50, 5HT.
The target in the next assay is T5, Histamine (Cavia porcellus, UniProt P31389).
T5 construct: histamine or carbamyl choline (muscarinic) contraction in guinea pig trachea; from tissue; host or cells: guinea pig trachea
T5 sequence (P31389 whole entry): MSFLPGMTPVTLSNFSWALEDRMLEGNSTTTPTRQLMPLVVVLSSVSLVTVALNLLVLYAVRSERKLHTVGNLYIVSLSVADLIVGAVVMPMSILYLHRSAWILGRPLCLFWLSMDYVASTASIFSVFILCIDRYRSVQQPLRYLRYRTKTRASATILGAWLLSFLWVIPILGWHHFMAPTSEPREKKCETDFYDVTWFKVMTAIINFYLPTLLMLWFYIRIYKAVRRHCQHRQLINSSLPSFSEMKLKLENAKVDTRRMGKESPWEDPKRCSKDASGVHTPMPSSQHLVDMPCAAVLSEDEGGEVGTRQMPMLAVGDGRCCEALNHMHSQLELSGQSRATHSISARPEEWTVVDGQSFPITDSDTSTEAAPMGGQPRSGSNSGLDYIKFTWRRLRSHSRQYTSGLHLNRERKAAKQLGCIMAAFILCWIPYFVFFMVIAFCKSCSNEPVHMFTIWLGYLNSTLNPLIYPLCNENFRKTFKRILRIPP
As to the kind of experiment: histamine contraction in guinea pig trachea. Type of assay: biochemical.
Description: as §5

Assay [5] relates to migraine. The settings on record: clinical trial, Lance I, Table 1; cited from earlier work.
The test system of assay [6] is vascular dopaminergic receptors. The settings on record: Cohen I; cited from earlier work.
Assay [7] concerns 5HT2 receptors. Particulars: Cohen I; cited from earlier work.
Assay [8] concerns vascular histaminergic receptors. The settings on record: Cohen I; cited from earlier work.
For assay [9], the system named is vascular alpha adrenergic receptors. The settings on record: Cohen I; cited from earlier work.
In assay [10] the test system is receptors other than 5HT2 receptors, particularly peripheral alpha2 receptors. The settings on record: cited from earlier work.
Assay [11] concerns migraine. The settings on record: Sulman; cited from earlier work.
For a further assay, the system named is 5HT receptor. The settings on record: literature; cited from earlier work.
For a further assay, the system named is dopaminergic. Particulars: literature; cited from earlier work.
The conditions of assay [12]: Berde; cited from earlier work.
A further assay deals with alpha-receptors. Particulars: literature; cited from earlier work.
The test system of another assay is cranial arteries. The settings on record: with noradrenaline, migraine attack, Aellig; cited from earlier work.

T1 sequence (P14842 whole entry): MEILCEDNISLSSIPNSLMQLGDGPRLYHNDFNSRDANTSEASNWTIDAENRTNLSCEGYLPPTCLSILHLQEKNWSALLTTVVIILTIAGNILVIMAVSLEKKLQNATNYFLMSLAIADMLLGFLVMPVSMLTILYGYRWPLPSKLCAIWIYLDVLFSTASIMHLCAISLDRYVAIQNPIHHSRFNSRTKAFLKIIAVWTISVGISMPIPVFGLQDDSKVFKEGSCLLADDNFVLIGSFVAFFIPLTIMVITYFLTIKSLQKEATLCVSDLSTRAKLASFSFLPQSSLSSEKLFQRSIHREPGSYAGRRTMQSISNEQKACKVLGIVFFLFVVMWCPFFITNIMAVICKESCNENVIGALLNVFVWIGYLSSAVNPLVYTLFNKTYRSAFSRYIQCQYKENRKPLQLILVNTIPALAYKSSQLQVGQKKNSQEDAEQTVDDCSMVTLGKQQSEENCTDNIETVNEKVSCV

On to `CC(C)n1cc2c3c(cccc31)[C@H]1C[C@@H](C(=O)O[C@H]3CC[C@@H](O)CC3)CN(C)[C@@H]1C2` (mixture of isomers) [cis, cis-(±)-4-hydroxycyclohexyl 1-isopropyl-9,10-dihydrolysergate], for which the curve shift in the assay on 5HT2 receptors [1] (0.3 mg/kg po) is listed as 6.7. Further, the “dose of 5HT required to increase mean arterial BP by 50 mmHg” value in the assay with 5HT2 receptors [1] (0.3 mg/kg po) is on record as 1800. Moreover, the “Curve Shift Relative to trans” value in the assay on 5HT2 receptors [1] (one hour after oral 0.1 mg/kg) amounted to 11.6; in the assay with 5HT2 receptors [1] (six hours after oral 0.1 mg/kg), 24.3. For the same compound, the figures for the Kb on 5HT2 receptors [2], at α1 receptors and at α2 receptors were 0.112 nM, 4470 nM and 155 nM, respectively.

Consider `CC(C)n1cc2c3c(cccc31)[C@H]1C[C@@H](C(=O)OC3CCC(O)CC3)CN(C)[C@@H]1C2` (mixture of isomers) [mixture, 4-hydroxycyclohexyl 1-isopropyl-9,10-dihydrolysergate], for which the “Curve Shift Relative to trans” value is listed as 3.6 with 5HT2 receptors [1] (one hour after oral 0.1 mg/kg) and 5.5 in the assay on 5HT2 receptors [1] (six hours after oral 0.1 mg/kg). In addition, the Kb on 5HT2 receptors [2] is 0.0661 nM; on Muscarinic, over 10000 nM; at α1 receptors, 14500 nM; at Histamine, over 10000 nM; at α2 receptors it was 117 nM. Moreover, in assay [3], the “effect on blood pressure or heart rate” value is “no effect on blood pressure or heart rate”. Besides, the IC50 is 3 nM against 5HT2 receptors [4] and 530 nM on 5HT1 receptors. Also, in the assay with alpha2 receptors (100 mg/kg dose level po), the “alpha2 antagonist activity in pithed rats” value was “slight”. The “specificity (5HT2 vs alpha2) in vivo compared with in vitro” value in the assay with alpha2 receptors (pithed rats, po) is reported as “greater specificity”.

In the case of `CN1CCC(=C2c3ccccc3CCc3sccc32)CC1` [BC105], the “Improvement rate in migraine” value in the assay on migraine [5] was 50%.

Regarding `CC(O)C(C)OC(=O)[C@@H]1C[C@@H]2c3cccc4c3c(cn4C(C)C)C[C@H]2N(C)C1` (stereo partly drawn) [LY53857, 1-isopropyl-6-methyl-8β-(1-methyl-2-hydroxy)propoxycarbonyl-5R-ergoline], the “affinity, vascular dopaminergic receptors” value in assay [6] is “minimal affinity”. For the same compound, the “antagonism of vascular contraction to serotonin” value in the assay with 5HT2 receptors [7] is listed as “potent antagonist”. Further, the “affinity, vascular histaminergic receptors” value in assay [8] is on record as “minimal affinity”. Also, in assay [9], the “affinity, vascular alpha adrenergic receptors” value was “minimal affinity”. The “effect on receptors other than 5HT2” value in assay [10] is on record as “lack of effect”.

`CN1CCC(=C2c3ccccc3C=Cc3ccccc32)CC1` [cyproheptadine]: in the assay with migraine [5], the “Improvement rate in migraine” value is 43%.

For `CN1CCC(=C2c3ccccc3C(O)c3ccccc32)CC1` (stereo not shown) [danitracene], in the assay with migraine [11], the pharmacological effects entry was “antiserotonin, antihistamine and antidepressive affects”.

`C[C@@H](CO)NC(=O)[C@@H]1C=C2c3cccc4[nH]cc(c34)C[C@H]2N(C)C1` [ergonovine]: in the assay with 5HT receptor, the “5HT receptor activity (agonist/antagonist) in words” value is 5HT agonist and selective and fairly potent 5HT antagonist in smooth muscle and highly active 5HT antagonist in the uterus. Besides, in the assay with dopaminergic, the “dopaminergic activity in words” value is “weak dopaminergic antagonist”.

With `CN1C[C@H](C(=O)N[C@]2(C)O[C@@]3(O)[C@@H]4CCCN4C(=O)[C@H](Cc4ccccc4)N3C2=O)C=C2c3cccc4[nH]cc(c34)C[C@H]21` [ergotamine], the “pressor and emetic activity” value in assay [12] is “most active compound only in pressor and emetic activity”. Also, in the assay with alpha-receptors, the “alpha receptor activity in words” value was “both a partial alpha-agonist and an alpha-antagonist”. The “5HT receptor activity (agonist/antagonist) in words” value in the assay with 5HT receptor is on record as 5HT agonists at low concentrations but antagonistic at higher concentrations. In addition, the “constriction of cranial arteries” value with cranial arteries was “act together to constrict cranial arteries”.

As to `CCN(CC)C(=O)N[C@H]1C=C2c3cccc4[nH]cc(c34)C[C@H]2N(C)C1` [lysenyl, N-D-6-methylisoergolenyldiethylcarbamide], in the assay with migraine [5], the “Improvement rate in migraine” value is 34%.

As to `CN1CCC(CN2c3ccccc3Sc3ccccc32)C1` (stereo not shown) [methdilazine], in the assay with migraine [5], the “Improvement rate in migraine” value was 45%.

Consider `CC(C)n1cc2c3c(cccc31)[C@H]1C[C@@H](C(=O)O[C@H]3CC[C@H](O)CC3)CN(C)[C@@H]1C2` [trans, trans-4-hydroxycyclohexyl 1-isopropyl-9,10-dihydrolysergate], for which the “potency of trans isomer relative to cis isomer” value in the assay with 5HT2 receptors [1] (by extrapolation, po) is reported as 3 X. The Kb at 5HT2 receptors [2] was 0.0955 nM; on Muscarinic, over 10000 nM; on α1 receptors, 1950 nM; at Histamine it was over 10000 nM; on α2 receptors, 66.1 nM. Besides, the IC50 is 0.7 nM against 5HT2 receptors [4] and 390 nM at 5HT1 receptors.
